# According to ChEMBL document CHEMBL1201862, “PubChem BioAssay data set” (2004):
# Activity calls are given as the source filed them.
# Key:
# Vero = experiment: cells; format: functional; details: Chlorocebus sabaeus
# [1] = NIH-3T3 fibroblast cytotoxicity, dose response, cytotoxicity control, cell-based, fluorescence, Alamar Blue, secondary assay (AID 2327); format: functional;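 also: NIH-3T3 mouse fibroblasts cultured with fluconazole at 8 µg/mL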
# HEK293 [2] = experiment: NOD1 signaling inhibitors, primary screen, cell-based, luminescence, uHTS (AID 1578); format: functional; details: Homo sapiens
# HEK293 [3] = experiment: cells; format: functional, cell-based; details: Homo sapiens
# [4] = C. albicans growth with fluconazole, confirmation, fluorescence, retest (AID 2467); format: functional, cell-based
# HEK293 [5] = experiment: cells; format: functional, cell-based; details: Homo sapiens; remark: listed apart in the source
# HEK293 [6] = experiment: NOD2 signaling inhibitors in MDP-stimulated cells, cell-based, uHTS, luminescence (AID 2001); format: functional; details: Homo sapiens
# [7] = THP-1 cell cytotoxicity, dose response, cytotoxicity control for non-replicating M. tuberculosis project (AID 489025); format: functional
# [8] = HepG2 cell cytotoxicity, dose response, cytotoxicity control for non-replicating M. tuberculosis project (AID 489018); format: functional; details: Mycobacterium tuberculosis
# cells = format: functional
# [9] = biological target: Induced myeloid leukemia cell differentiation protein Mcl-1 (Homo sapiens, UniProt Q07820); format: functional
# Chain of Induced myeloid leukemia cell differentiation protein Mcl-1 (Q07820 whole entry): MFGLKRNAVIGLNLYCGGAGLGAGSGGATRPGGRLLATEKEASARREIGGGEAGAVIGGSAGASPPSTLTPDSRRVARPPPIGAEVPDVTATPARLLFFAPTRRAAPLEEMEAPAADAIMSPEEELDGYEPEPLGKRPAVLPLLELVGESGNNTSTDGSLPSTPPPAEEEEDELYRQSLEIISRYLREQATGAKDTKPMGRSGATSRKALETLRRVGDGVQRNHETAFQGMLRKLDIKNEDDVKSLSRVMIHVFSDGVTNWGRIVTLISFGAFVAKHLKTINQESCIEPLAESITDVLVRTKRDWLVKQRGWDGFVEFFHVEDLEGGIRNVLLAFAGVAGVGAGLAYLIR
# [10] = Vero E6 cell cytotoxicity, dose response, cytotoxicity control for non-replicating M. tuberculosis project, secondary assay (AID 492998); format: functional, VeroE6; details: Vero C1008
# [11] = cytotoxicity in HEK-293T cells, dose response, cytotoxicity control for BCR NF-kB inhibitor project, luminescence, B-cell screen hits (AID 489021); format: functional, cell-based;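 also: HEK-293T cells carrying an NF-kB luciferase reporter; cells exposed to compound for about 14 hours before viability readout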
# [12] = inhibitors of intracellular T. cruzi replication, confirmation, NIH3T3 host cells, beta-gal luminescence (AID 2044); format: functional, cell-based;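 also: intracellular parasites grown in NIH/3T3 mouse fibroblasts as host cells; luminescent beta-galactosidase reporter signal from transgenic T. cruzi replicating inside host cells; inhibitors lower the luminescence signal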
# [13] = cytotoxicity toward NIH3T3 fibroblasts, dose response, counter-screen, cell-based, ATP luminescence, mouse fibroblasts (AID 2010); format: functional; details: NIH3T3;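 also: cells exposed to compound for about 90 hours before reading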
# INS1 = experiment: beta cell apoptosis inhibitors, cytokine rescue, dose response, luminescence, retest (AID 449756); format: functional, cell-based; details: Rattus norvegicus;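 also: cell death triggered by IL-1 beta plus TNF-alpha plus IFN-gamma mixture; protective hits raise ATP signal compared with cytokine alone wells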
# [14] = microbe, parasite or virus in culture; format: functional; details: Mycobacterium tuberculosis
# [15] = biological target: Voltage-dependent T-type calcium channel subunit alpha-1H (Homo sapiens, UniProt O95180); format: functional;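 also: channel activity triggered by adding a high calcium stimulation buffer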
# Chain of Voltage-dependent T-type calcium channel subunit alpha-1H (O95180 whole entry): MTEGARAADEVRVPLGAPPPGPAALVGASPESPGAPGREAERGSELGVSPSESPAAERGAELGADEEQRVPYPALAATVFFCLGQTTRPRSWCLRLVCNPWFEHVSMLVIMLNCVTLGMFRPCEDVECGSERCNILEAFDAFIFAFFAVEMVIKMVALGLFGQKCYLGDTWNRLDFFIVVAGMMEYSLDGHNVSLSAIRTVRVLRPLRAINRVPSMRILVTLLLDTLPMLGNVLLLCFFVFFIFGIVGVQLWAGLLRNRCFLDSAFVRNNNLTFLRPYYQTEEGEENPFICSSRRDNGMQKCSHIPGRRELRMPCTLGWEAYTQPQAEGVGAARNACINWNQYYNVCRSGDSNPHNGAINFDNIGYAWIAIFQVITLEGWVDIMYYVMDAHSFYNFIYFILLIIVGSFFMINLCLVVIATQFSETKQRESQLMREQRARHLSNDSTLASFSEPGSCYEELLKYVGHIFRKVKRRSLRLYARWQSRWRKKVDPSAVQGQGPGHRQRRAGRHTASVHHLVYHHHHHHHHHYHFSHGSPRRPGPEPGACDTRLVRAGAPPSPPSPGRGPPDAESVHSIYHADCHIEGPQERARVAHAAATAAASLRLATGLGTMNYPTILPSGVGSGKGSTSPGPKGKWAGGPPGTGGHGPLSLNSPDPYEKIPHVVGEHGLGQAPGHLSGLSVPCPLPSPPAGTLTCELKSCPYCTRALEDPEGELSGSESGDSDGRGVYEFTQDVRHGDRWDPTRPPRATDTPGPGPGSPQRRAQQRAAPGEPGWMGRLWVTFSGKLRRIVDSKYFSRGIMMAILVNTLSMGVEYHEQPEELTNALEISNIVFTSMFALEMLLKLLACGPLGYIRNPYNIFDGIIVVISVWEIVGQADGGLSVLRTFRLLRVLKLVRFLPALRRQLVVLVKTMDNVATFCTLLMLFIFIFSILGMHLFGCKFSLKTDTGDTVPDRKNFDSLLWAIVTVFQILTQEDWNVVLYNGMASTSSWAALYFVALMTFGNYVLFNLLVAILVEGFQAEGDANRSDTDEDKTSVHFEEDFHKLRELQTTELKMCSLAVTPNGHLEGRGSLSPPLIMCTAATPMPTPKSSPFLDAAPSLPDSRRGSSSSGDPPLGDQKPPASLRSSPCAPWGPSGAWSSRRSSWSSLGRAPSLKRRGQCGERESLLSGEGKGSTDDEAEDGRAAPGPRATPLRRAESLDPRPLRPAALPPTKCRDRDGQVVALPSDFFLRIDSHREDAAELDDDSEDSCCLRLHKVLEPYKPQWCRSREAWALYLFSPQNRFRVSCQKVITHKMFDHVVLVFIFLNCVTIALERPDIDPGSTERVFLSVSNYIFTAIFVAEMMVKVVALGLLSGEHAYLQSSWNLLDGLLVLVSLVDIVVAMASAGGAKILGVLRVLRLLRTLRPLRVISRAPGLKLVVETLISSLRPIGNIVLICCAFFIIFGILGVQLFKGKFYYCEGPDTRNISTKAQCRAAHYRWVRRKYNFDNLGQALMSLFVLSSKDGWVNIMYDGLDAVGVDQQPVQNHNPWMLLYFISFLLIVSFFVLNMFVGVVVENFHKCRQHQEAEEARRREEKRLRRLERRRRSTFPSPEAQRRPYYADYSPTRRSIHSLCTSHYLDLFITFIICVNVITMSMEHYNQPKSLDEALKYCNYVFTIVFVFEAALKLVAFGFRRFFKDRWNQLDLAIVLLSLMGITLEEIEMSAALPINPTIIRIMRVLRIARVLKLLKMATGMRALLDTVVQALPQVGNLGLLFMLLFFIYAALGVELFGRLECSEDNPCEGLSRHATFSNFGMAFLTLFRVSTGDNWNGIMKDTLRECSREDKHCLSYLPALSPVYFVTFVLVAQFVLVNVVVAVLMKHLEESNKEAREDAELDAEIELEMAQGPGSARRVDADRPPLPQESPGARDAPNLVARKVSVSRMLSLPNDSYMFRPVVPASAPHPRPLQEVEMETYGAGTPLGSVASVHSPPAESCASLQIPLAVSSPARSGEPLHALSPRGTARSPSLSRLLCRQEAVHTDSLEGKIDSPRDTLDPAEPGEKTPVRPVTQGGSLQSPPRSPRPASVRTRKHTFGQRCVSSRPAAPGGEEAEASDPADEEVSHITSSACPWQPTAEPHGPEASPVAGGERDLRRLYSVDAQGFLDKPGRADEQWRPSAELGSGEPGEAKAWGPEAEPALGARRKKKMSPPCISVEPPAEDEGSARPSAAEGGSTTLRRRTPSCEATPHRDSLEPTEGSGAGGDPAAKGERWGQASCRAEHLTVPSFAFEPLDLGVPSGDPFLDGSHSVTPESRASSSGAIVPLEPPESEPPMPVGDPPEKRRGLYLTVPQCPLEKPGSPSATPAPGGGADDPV
# [16] = Luminescence Cell-Based Dose Retest to Confirm Inhibitors of Cancer Stem Cells. [Related pubchem assays (depositor defined):AID2717, AID2721]; format: functional, Homo sapiens; details: Homo sapiens
# [17] = inhibitors of firefly luciferase expression or activity, dose response, H4 neuroglioma cells, luminescence (AID 1990); format: functional, cell-based
# [18] = Luminescence Cell-Based Dose Response HTS to Identify Inhibitors of 5'UTR Stem-Loop Driven Prion Protein mRNA Translation in H4 Neuroglioblastoma Cells. [Related pubchem assays: 1827 (Project Summary), 1813 (Primary HTS)]; format: functional
# [19] = inhibitors of SNCA 5'UTR-driven reporter translation, confirmation, H4 neuroglioma cells, luminescence (AID 1988); format: functional, cell-based
compound,measurement,setting,value
COC(=O)/C=C\C(C#N)(C#N)N=Cc1ccc(OC)cc1,CC50,Vero,> 25 µM (active)
CC(C)(C)NC(=S)N/N=C/c1cc(Br)c(O)c(Br)c1,EC50,[1],32.2 µM (active)
same,EC50,HEK293 [2],5.75 µM (active)
same,IC50,HEK293 [3],> 20 µM (inactive)
same,EC50,[4],2.86 µM (active)
same,IC50,HEK293 [5],> 20 µM (inactive)
same,IC50,HEK293 [6],16.9 µM (inactive)
CC1CCN(CCc2nc3cc(NC(=O)COc4ccc(Cl)cc4)ccc3n2C)CC1,CC50,[7],26.1 µM (active)
same,CC50,[8],> 20 µM (active)
same,IC50,cells,28.1 µM (active)
O=[N+]([O-])c1ccc2c(c1)=[N+]([O-])C1(CCCCC1)[N+]=2[O-],IC50,[9],4.85 µM (active)
Cc1cc(NCc2ccccn2)n2nc(C)c(-c3ccccc3)c2n1,CC50,[7],6.19 µM (active)
same,CC50,[8],3.11 µM (active)
same,CC50,[10],13.6 µM (active)
same,IC50,cells,3.2 µM (active)
COc1ccccc1/C=C1\SC(=S)N(CCC(=O)Nc2nnc(C)s2)C1=O,IC50,[11],> 80 µM (inactive)
Cc1ccc(-c2cn3c([n+]2-c2ccccc2)SCC3)cc1,EC50,[12],0.282 µM (active)
same,EC50,[13],> 60 µM (not active)
same,IC50,[11],> 80 µM (inactive)
same,AC50,INS1,3.11 µM (active)
C/C(=N\NC(=O)c1nnn(-c2nonc2N)c1CN(C)c1ccccc1)c1ccccn1,CC50,[14],2.43 µM (active)
CC1Cc2ccccc2N1S(=O)(=O)c1cnc(Cl)c(Br)c1 (stereo not drawn),IC50,[11],69.3 µM (inactive)
CN(C)c1ccc(C(c2nnnn2CCOC(=O)Nc2ccc(Cl)cc2)N2CCOCC2)cc1 (stereo not drawn),EC50,[15],9.17 µM (active)
CC(C)C[C@H](NC(=O)c1[nH]cnc1C(=O)NC(c1ccccc1)c1ccccc1)C(=O)OC(C)(C)C,AC50,[16],3.44 µM (active)
same,CC50,Vero,19.3 µM (active)
CCN(CC)CCOCCOc1ccc(Cl)c2ccccc12,CC50,Vero,> 25 µM (active)
CC(C)Cn1c(SCC(=O)c2ccc(Cl)s2)nnc1-c1ccco1,EC50,[15],10.6 µM (active)
same,CC50,Vero,> 25 µM (active)
Cc1ccc(-c2nnn(CC(=O)N3CCCc4ccccc43)n2)cc1,EC50,[15],3.43 µM (active)
CSC1CCCCC1(O)CSc1nc2c(cc1C#N)CCCC2 (stereo not drawn),EC50,[17],14.1 µM (active)
same,EC50,[18],22.3 µM (active)
same,EC50,[19],> 120 µM (not active)
same,IC50,[11],> 80 µM (inactive)
